Measurements published in PubChem BioAssay (NCI).
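Interpolation was linear, between the two tested concentrations surrounding the appropriate level; five concentrations were tested over 48 hours in 96-well plates. GI50 marks 50% less growth. TGI marks complete inhibition of growth.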

Tests used:
Test in all cases: DTP human tumour cell line panel, 48 h
BT-549 breast = tested on: BT-549 breast
SK-MEL-28 melanoma = tested on: SK-MEL-28 melanoma
RXF 393 renal = tested on: RXF 393 renal
EKVX NSCLC = tested on: EKVX NSCLC
SF-295 CNS = tested on: SF-295 CNS
NCI-H226 lung = tested on: NCI-H226 lung
SNB-75 CNS = tested on: SNB-75 CNS
PC-3 prostate = tested on: PC-3 prostate
DU-145 prostate = tested on: DU-145 prostate
SK-MEL-2 melanoma = tested on: SK-MEL-2 melanoma
SW-620 colon = tested on: SW-620 colon
SF-539 CNS = tested on: SF-539 CNS
ACHN renal = tested on: ACHN renal
OVCAR-4 ovarian = tested on: OVCAR-4 ovarian
NCI/ADR-RES ovarian = tested on: NCI/ADR-RES ovarian
A498 renal = tested on: A498 renal
786-0 renal = tested on: 786-0 renal
SR leukemia = tested on: SR leukemia
NCI-H23 lung = tested on: NCI-H23 lung
KM12 colon = tested on: KM12 colon
MDA-MB-231 breast = tested on: MDA-MB-231 breast
HT29 colon = tested on: HT29 colon
RPMI-8226 leukemia = tested on: RPMI-8226 leukemia
UACC-257 melanoma = tested on: UACC-257 melanoma
CCRF-CEM leukemia = tested on: CCRF-CEM leukemia
HS 578T breast = tested on: HS 578T breast
K-562 leukemia = tested on: K-562 leukemia
UO-31 renal = tested on: UO-31 renal
MOLT-4 leukemia = tested on: MOLT-4 leukemia
HOP-92 NSCLC = tested on: HOP-92 NSCLC
A549 NSCLC = tested on: A549 NSCLC
SN12C renal = tested on: SN12C renal
OVCAR-5 ovarian = tested on: OVCAR-5 ovarian
TK-10 renal = tested on: TK-10 renal
IGROV1 ovarian = tested on: IGROV1 ovarian
SF-268 CNS = tested on: SF-268 CNS
T-47D breast = tested on: T-47D breast
SNB-19 CNS = tested on: SNB-19 CNS

## CCCCCc1ccc(S(=O)(=O)Nc2cccc(-c3csc(NC(=O)CCCCCN4CCN(C)CC4)n3)c2)cc1
BT-549 breast
  GI50: 2.29 µM
  TGI: 9.55 µM
SK-MEL-28 melanoma
  GI50: 1.84 µM
  TGI: 3.37 µM
RXF 393 renal
  GI50: 1.64 µM
  TGI: 3.35 µM
EKVX NSCLC
  GI50: 2.07 µM
  TGI: 5.29 µM
SF-295 CNS
  GI50: 1.93 µM
  TGI: 3.95 µM
NCI-H226 lung
  GI50: 2.55 µM
  TGI: 7.16 µM
SNB-75 CNS
  GI50: 1.6 µM
  TGI: 3.88 µM
PC-3 prostate
  GI50: 2.2 µM
  TGI: 6.42 µM
DU-145 prostate
  GI50: 2.11 µM
  TGI: 4.32 µM
SK-MEL-2 melanoma
  GI50: 1.76 µM
  TGI: 3.47 µM
SW-620 colon
  GI50: 1.73 µM
  TGI: 3.23 µM
SF-539 CNS
  GI50: 1.67 µM
  TGI: 3.09 µM
ACHN renal
  GI50: 1.86 µM
  TGI: 3.56 µM
OVCAR-4 ovarian
  GI50: 2.74 µM
  TGI: 8.69 µM
NCI/ADR-RES ovarian
  GI50: 8.99 µM
  TGI: 39.4 µM
A498 renal
  GI50: 3.36 µM
  TGI: 11.9 µM
786-0 renal
  GI50: 1.86 µM
  TGI: 3.38 µM
SR leukemia
  GI50: 1.96 µM
  TGI: 4.79 µM
NCI-H23 lung
  GI50: 2.46 µM
  TGI: 6.52 µM
KM12 colon
  GI50: 1.86 µM
  TGI: 3.49 µM
MDA-MB-231 breast
  GI50: 1.85 µM
  TGI: 3.89 µM
HT29 colon
  GI50: 1.86 µM
  TGI: 3.67 µM
RPMI-8226 leukemia
  GI50: 1.83 µM
  TGI: 4.38 µM
UACC-257 melanoma
  GI50: 1.64 µM
  TGI: 3.23 µM
CCRF-CEM leukemia
  GI50: 2.76 µM
  TGI: 13.7 µM
HS 578T breast
  GI50: 1.92 µM
  TGI: 4.7 µM
K-562 leukemia
  GI50: 2.42 µM
  TGI: 17.5 µM
UO-31 renal
  GI50: 1.62 µM
  TGI: 3.23 µM
MOLT-4 leukemia
  GI50: 2.98 µM
  TGI: 9.5 µM
HOP-92 NSCLC
  GI50: 1.44 µM
  TGI: 3.3 µM
A549 NSCLC
  GI50: 1.94 µM
  TGI: 4.38 µM
SN12C renal
  GI50: 2.74 µM
  TGI: 8.65 µM
OVCAR-5 ovarian
  GI50: 2.16 µM
  TGI: 5.13 µM
TK-10 renal
  GI50: 2.03 µM
  TGI: 4.51 µM
IGROV1 ovarian
  GI50: 2.27 µM
  TGI: 5.29 µM
SF-268 CNS
  GI50: 1.86 µM
  TGI: 3.93 µM
T-47D breast
  GI50: 1.96 µM
  TGI: 4.93 µM
SNB-19 CNS
  GI50: 2.9 µM
  TGI: 9.8 µM
